Laboratory results from patent US10519134B2, “Pyrazole compounds and methods of making and using same” (Lundbeck La Jolla Research Center, Inc., priority 2015, dated 2019).
pIC50: −log10 of the molar value.

Legend:
MAGL = target: T1, MAGL (Mus musculus, UniProt O35678); assay: In vitro competitive activity-based protein profiling (mouse), MAGL gel band; type: biochemical; details: for inhibition at 1 µM: read-out: MAGL % inh. 1 μM; for pIC50: mouse
T1 construct: Proteomes (mouse brain membrane fraction or cell lysates); from tissue; host or cells: mouse brain membrane fraction (or cell lysates)
T1 sequence (O35678 1-303): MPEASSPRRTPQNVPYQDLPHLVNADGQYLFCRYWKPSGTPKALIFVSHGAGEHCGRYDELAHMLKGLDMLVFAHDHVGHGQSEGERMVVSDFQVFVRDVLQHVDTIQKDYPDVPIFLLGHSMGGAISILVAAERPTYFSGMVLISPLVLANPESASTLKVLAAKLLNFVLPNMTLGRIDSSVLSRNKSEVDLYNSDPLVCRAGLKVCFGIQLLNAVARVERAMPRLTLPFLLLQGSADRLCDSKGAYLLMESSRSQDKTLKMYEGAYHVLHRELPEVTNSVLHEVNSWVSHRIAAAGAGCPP
How it was run: (§1)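 Residual enzyme activity is taken from in-gel fluorescence after SDS-PAGE. Proteome from mouse brain membranes or cell lysates (total protein 1.0 mg/mL) sees inhibitor for 30 min, then FP-Rh or HT-01 probe (50 μM DMSO stock) for 30 min, both steps at 37 °C.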

FAAH = target: T2, FAAH (Mus musculus, UniProt O08914); assay: In vitro competitive activity-based protein profiling (mouse), FAAH gel band; type: biochemical; details: for inhibition at 1 µM: read-out: FAAH % inh. 1 μM; for pIC50: mouse
T2 construct: Proteomes (mouse brain membrane fraction or cell lysates); from tissue; host or cells: mouse brain membrane fraction (or cell lysates)
T2 sequence (O08914 1-579): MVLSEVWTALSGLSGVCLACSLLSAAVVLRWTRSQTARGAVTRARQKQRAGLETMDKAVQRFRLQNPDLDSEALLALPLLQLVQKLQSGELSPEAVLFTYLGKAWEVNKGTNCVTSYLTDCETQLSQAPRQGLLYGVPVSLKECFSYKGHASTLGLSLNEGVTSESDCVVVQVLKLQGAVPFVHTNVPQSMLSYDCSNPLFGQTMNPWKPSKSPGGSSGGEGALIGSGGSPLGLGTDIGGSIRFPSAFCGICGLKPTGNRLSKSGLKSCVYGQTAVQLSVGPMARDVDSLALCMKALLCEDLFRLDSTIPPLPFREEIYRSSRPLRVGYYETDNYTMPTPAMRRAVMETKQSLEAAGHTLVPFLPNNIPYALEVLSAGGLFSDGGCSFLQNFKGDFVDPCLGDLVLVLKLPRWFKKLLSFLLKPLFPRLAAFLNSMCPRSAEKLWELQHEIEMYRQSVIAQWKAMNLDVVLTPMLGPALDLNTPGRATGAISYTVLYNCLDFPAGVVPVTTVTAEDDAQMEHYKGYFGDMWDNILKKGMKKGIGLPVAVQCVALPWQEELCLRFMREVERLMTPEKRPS
How it was run: as §1

| inhibition at 1 µM (MAGL) [%] | inhibition at 1 µM (FAAH) [%] | pIC50 (MAGL) | pIC50 (FAAH) | Compound |
| --- | --- | --- | --- | --- |
| ≥ 75 | 0 to 25 | – | – | CS(=O)(=O)Nc1ccn(C(=O)N2CCN(Cc3ccc(Cl)c(C4CCCC4)c3)CC2)n1 [Example 272, N-(1-(4-(4-chloro-3-cyclopentylbenzyl)piperazine-1-carbonyl)-1H-pyrazol-3-yl) methanesulfonamide] |
| ≥ 75 | 0 to 25 | – | – | CS(=O)(=O)Nc1ccn(C(=O)N2CCC3(CCCN3Cc3ccc(C(F)(F)F)c(N4CCCC4)c3)CC2)n1 [Example 160, N-(1-(1-(3-(pyrrolidin-1-yl)-4-(trifluoromethyl)benzyl)-1,8-diazaspiro[4.5]decane-8-carbonyl)-1H-pyrazol-3-yl) methanesulfonamide] |
| ≥ 75 | 0 to 25 | – | – | CS(=O)(=O)Nc1ccn(C(=O)N2CCN(Cc3cc(Cl)ccc3N3CCCC3)CC2)n1 [Example 179, N-(1-(4-(5-chloro-2-(pyrrolidin-1-yl)benzyl)piperazine-1-carbonyl)-1H-pyrazol-3-yl) methanesulfonamide] |
| 50 to 75 | 0 to 25 | – | – | CS(=O)(=O)Nc1ccn(C(=O)N2CCN(Cc3ccc(C(F)(F)F)cc3N3CCN(CC(=O)O)CC3)CC2)n1 [Example 241, 2-(4-(2-((4-(3-(methylsulfonamido)-1H-pyrazole-1-carbonyl)piperazin-1-yl)methyl)-5-(trifluoromethyl)phenyl)piperazin-1-yl)acetic acid] |
| ≥ 75 | 0 to 25 | – | – | CS(=O)(=O)Nc1ccn(C(=O)N2CCN(Cc3ccc(C(F)(F)F)c(Cl)c3)CC2)n1 [Example 154, N-(1-(4-(3-chloro-4-(trifluoromethyl)benzyl)piperazine-1-carbonyl)-1H-pyrazol-3-yl) methanesulfonamide] |
| 0 to 25 | 0 to 25 | – | – | CS(=O)(=O)Nc1ccn(C(=O)N2CCN(Cc3ccc(C(F)(F)F)c(N4CCN(CC(=O)O)CC4)c3)CC2)n1 [Example 281, 2-(4-(5-((4-(3-(methylsulfonamido)-1H-pyrazole-1-carbonyl)piperazin-1-yl)methyl)-2-(trifluoromethyl)phenyl)piperazin-1-yl)acetic acid] |
| ≥ 75 | 0 to 25 | 6.00 to 7.00 | 5.00 to 6.00 | CC(=O)N1CCN(c2cc(CN3CCN(C(=O)n4ccc(NS(C)(=O)=O)n4)CC3)ccc2Cl)CC1 [Example 284, N-(1-(4-(3-(4-acetylpiperazin-1-yl)-4-chlorobenzyl)piperazine-1-carbonyl)-1H-pyrazol-3-yl) methanesulfonamide] |
| 25 to 50 | 0 to 25 | – | – | CS(=O)(=O)Nc1ccn(C(=O)N2CCN(Cc3ccc(N4CCOCC4)c(Cl)c3)CC2)n1 [Example 170, N-(1-(4-(3-chloro-4-morpholinobenzyl)piperazine-1-carbonyl)-1H-pyrazol-3-yl) methanesulfonamide] |
| ≥ 75 | 0 to 25 | – | – | CS(=O)(=O)Nc1ccn(C(=O)N2CCN(Cc3cc(C(F)(F)F)cc(C(F)(F)F)c3)CC2)n1 [Example 177, N-(1-(4-(3,5-bis(trifluoromethyl)benzyl)piperazine-1-carbonyl)-1H-pyrazol-3-yl) methanesulfonamide] |

The remaining lines, values behind:

| Compound | inhibition at 1 µM (MAGL) [%] | inhibition at 1 µM (FAAH) [%] | pIC50 (MAGL) | pIC50 (FAAH) |
| --- | --- | --- | --- | --- |
| CC(=O)N(C)c1ccn(C(=O)N2CCN(Cc3ccc(C(F)(F)F)cc3N3CCCC3)CC2)n1 [Example 2, N-methyl-N-(1-(4-(2-(pyrrolidin-1-yl)-4-(trifluoromethyl)benzyl)piperazine-1-carbonyl)-1H-pyrazol-3-yl)acetamide] | ≥ 75 | 0 to 25 | 6.00 to 7.00 | 5.00 to 6.00 |
| CS(=O)(=O)Nc1ccn(C(=O)N2CCC3(CCCN3Cc3ccc(Cl)cc3N3C[C@H]4CC[C@@H](C3)O4)CC2)n1 [Example 139, N-(1-(1-(2-((1R,5S)-8-oxa-3-azabicyclo[3.2.1]octan-3-yl)-4-chlorobenzyl)-1,8-diazaspiro[4.5]decane-8-carbonyl)-1H-pyrazol-3-yl) methanesulfonamide] | ≥ 75 | 0 to 25 | 6.00 to 7.00 | 5.00 to 6.00 |
| CS(=O)(=O)Nc1ccn(C(=O)N2CCC3(CCCN3Cc3cccc(N4CCCCC4)c3Cl)CC2)n1 [Example 144, N-(1-(1-(2-chloro-3-(piperidin-1-yl)benzyl)-1,8-diazaspiro[4.5]decane-8-carbonyl)-1H-pyrazol-3-yl) methanesulfonamide] | ≥ 75 | 0 to 25 | 6.00 to 7.00 | 5.00 to 6.00 |
| CC(=O)N(C)c1ccn(C(=O)N2CCC3(CCCN3Cc3ccc(C(F)(F)F)cc3N3CCCC3)CC2)n1 [Example 68, N-methyl-N-(1-(1-(2-(pyrrolidin-1-yl)-4-(trifluoromethyl)benzyl)-1,8-diazaspiro[4.5]decane-8-carbonyl)-1H-pyrazol-3-yl)acetamide] | 50 to 75 | 0 to 25 | – | – |
| CC(=O)Nc1ccn(C(=O)N2CCN(Cc3cc(Oc4nc5ccccc5s4)cc(C(F)(F)F)c3)CC2)n1 [Example 76, N-(1-(4-(3-(benzo[d]thiazol-2-yloxy)-5-(trifluoromethyl)benzyl)piperazine-1-carbonyl)-1H-pyrazol-3-yl)acetamide] | ≥ 75 | ≥ 75 | ≥ 7.00 | 6.00 to 7.00 |
| COc1cc(-c2ccccc2)ccc1CN1CCN(C(=O)n2ccc(NS(C)(=O)=O)n2)CC1 [Example 151, N-(1-(4-((3-methoxy-[1,1′-biphenyl]-4-yl)methyl)piperazine-1-carbonyl)-1H-pyrazol-3-yl) methanesulfonamide] | ≥ 75 | 25 to 50 | – | – |
| CC(=O)Nc1ccn(C(=O)N2CCC3(CCCN3Cc3ccc(Cl)cc3N3CCN(C4CC4)CC3)CC2)n1 [Example 13, N-(1-(1-(4-chloro-2-(4-cyclopropylpiperazin-1-yl)benzyl)-1,8-diazaspiro[4.5]decane-8-carbonyl)-1H-pyrazol-3-yl)acetamide] | ≥ 75 | 0 to 25 | 6.00 to 7.00 | 5.00 to 6.00 |
| CC(=O)Nc1ccn(C(=O)N2CCC3(CCCN3Cc3ccc4c(c3)COC4)CC2)n1 [Example 97, N-(1-(1-((1,3-dihydroisobenzofuran-5-yl)methyl)-1,8-diazaspiro[4.5]decane-8-carbonyl)-1H-pyrazol-3-yl)acetamide] | ≥ 75 | 0 to 25 | 6.00 to 7.00 | 5.00 to 6.00 |
| CS(=O)(=O)Nc1ccn(C(=O)N2CCN(Cc3ccc(Cl)cc3N3CCOCC3)CC2)n1 [Example 135, N-(1-(4-(4-chloro-2-morpholinobenzyl)piperazine-1-carbonyl)-1H-pyrazol-3-yl) methanesulfonamide] | ≥ 75 | 0 to 25 | 6.00 to 7.00 | 5.00 to 6.00 |
| CS(=O)(=O)Nc1ccn(C(=O)N2CCN(Cc3ccc(C(F)(F)F)cc3N3CCCCC3)CC2)n1 [Example 129, N-(1-(4-(2-(piperidin-1-yl)-4-(trifluoromethyl)benzyl)piperazine-1-carbonyl)-1H-pyrazol-3-yl) methanesulfonamide] | ≥ 75 | 0 to 25 | ≥ 7.00 | 5.00 to 6.00 |
| O=C(CO)Nc1ccn(C(=O)N2CCN(Cc3ccc(Cl)cc3)CC2)n1 [Example 91, N-(1-(4-(4-chlorobenzyl)piperazine-1-carbonyl)-1H-pyrazol-3-yl)-2-hydroxyacetamide] | ≥ 75 | 0 to 25 | – | – |
